Results published in patent publication US5134124A, “Use of a statin derivative in the treatment of eye complaints” (Sanofi, priority 1989, dated 1992).

Experiments:
[1] = target: T1, human plasma renin (Homo sapiens, UniProt P00797); assay: Inhibition of human plasma renin activity at pH 7.4; type: biochemical; details: method of EP 211 744, read-out: 50% inhibitory concentration (IC50), inhibition of human plasma renin activity
T1 construct: from tissue; host or cells: human plasma
T1 sequence (P00797 67-406): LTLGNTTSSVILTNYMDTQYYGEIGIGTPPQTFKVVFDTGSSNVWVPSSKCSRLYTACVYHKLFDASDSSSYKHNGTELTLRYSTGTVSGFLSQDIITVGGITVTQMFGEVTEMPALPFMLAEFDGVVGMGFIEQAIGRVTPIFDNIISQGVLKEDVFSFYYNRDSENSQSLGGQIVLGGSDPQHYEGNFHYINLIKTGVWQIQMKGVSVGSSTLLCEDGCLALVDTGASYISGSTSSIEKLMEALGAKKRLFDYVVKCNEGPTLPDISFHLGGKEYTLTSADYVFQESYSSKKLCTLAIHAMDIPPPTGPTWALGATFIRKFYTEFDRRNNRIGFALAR
Procedure: The inhibition of human plasma renin activity at pH 7.4 was measured for this compound (I) according to the method described in patent application EP 211 744.

[2] = test system: intraocular pressure in rabbits; assay: Effect on the intraocular pressure in rabbits after increase by intravenous injection of a 5% glucose solution; type: in vivo; details: eye lotion, pressure increased by intravenous injection of a 5% glucose solution

IC50 [1]: 1 pM
Structure (SMILES): CCC(C)C(NC(=O)CC(O)C(CC1CCCCC1)NC(=O)C(Cc1cnc[nH]1)NC(=O)C(Cc1ccccc1)NC(=O)CCc1cccnc1)C(=O)NC(O)C(C)CO (centres unmarked) [compound (I), N-(3-pyridylpropionyl)phenylalanylhistidyl(cyclohexyl)statyl-N-(1,3-dihydroxy-2-methylpropyl)isoleucinamide]
effect on the intraocular pressure [2]: enables the intraocular pressure to return rapidly to its normal value
